Data published in patent US20120245201A1, “Isopropylphenidate for Treatment of Attention-Deficit/Hyperactivity Disorder and Fatigue-Related Disorders and Conditions” (priority 2009, published 2012).

Experiments:
[1] = system: male rats of the Sprague-Dawley strain; experiment: Locomotor activity measurement in rats; type: in vivo, rat
Procedure: FIGS. 4A-B—Locomotor activity of SD rats after i.p. injection of IPH (10 mg/kg) and saline. The time course of locomotor response over a 120 min period following i.p. administration of IPH (10 mg/kg) versus saline is shown in FIG. 4A. As expected, IPH produced robust effects on locomotor activity in rats compared to saline injections at every 10 min period recorded post-dosing with a mean of nearly 1200 counts recorded during the initial 10 min measurement. Shown in FIG. 4B are the cumulative locomotor activity counts over the entire 120 min study period.
Chemical compounds. dl-threo-methylphenidate (MPH) was purchased from Sigma-Aldrich (St. Louis, Mo.). dl-isopropylphenidate (IPH) was also synthesized in the inventors' laboratory using the following method. In brief, (±)-ritalinic acid (2 mmol) was dissolved in isopropyl alcohol saturated with HCl gas (75 ml) and refluxed for 24 h under nitrogen. […] All compounds studied were assessed as their HCl salts. […]
Locomotor Activity Measurement in Rats. Locomotor-inducing activity of IPH was measured according to methods previously described by Patrick and associates during their establishment the differential pharmacology of the enantiomers of MPH (Patrick et al., 1987) as well as hydroxylated metabolites of MPH (Patrick et al., 1981). […] In brief, following an initial 60 min habituation period to the activity chamber, racemic IPH (or saline) was administered intraperitonealy (i.p.) to each animal (n=5 per active drug group; n=3 per saline group) at a dose of 10 mg/kg to correspond with 10 mg of racemic MPH (delivering 5 mg of d-MPH) which was previously determined to produce maximal behavioral responses (Patrick et al., 1987). […] Locomotor activity was recorded within doughnut-shaped cages with six photocell sensors equally spaced around a 9 cm runway. Activity counts as assessed by light-beam interruptions were recorded for each animal in increments of 10 minutes over a 2 hr period. Differences in the cumulative motor activity accounts were assessed by the unpaired, two-tailed Student t-test. […]

[2] = biological target: T1, [3H]-(±)-MPH binding to rat brain striatal synaptosomes (Rattus norvegicus, UniProt P23977); conditions: mg/mg comparison; cited from earlier work
T1 construct: host or cells: rat brain striatal synaptosomes

Sprague-Dawley rats = conditions: intracerebroventricular; cited from earlier work
[3] = immediate-release tablet; cited from earlier work

T1 sequence (P23977 whole entry): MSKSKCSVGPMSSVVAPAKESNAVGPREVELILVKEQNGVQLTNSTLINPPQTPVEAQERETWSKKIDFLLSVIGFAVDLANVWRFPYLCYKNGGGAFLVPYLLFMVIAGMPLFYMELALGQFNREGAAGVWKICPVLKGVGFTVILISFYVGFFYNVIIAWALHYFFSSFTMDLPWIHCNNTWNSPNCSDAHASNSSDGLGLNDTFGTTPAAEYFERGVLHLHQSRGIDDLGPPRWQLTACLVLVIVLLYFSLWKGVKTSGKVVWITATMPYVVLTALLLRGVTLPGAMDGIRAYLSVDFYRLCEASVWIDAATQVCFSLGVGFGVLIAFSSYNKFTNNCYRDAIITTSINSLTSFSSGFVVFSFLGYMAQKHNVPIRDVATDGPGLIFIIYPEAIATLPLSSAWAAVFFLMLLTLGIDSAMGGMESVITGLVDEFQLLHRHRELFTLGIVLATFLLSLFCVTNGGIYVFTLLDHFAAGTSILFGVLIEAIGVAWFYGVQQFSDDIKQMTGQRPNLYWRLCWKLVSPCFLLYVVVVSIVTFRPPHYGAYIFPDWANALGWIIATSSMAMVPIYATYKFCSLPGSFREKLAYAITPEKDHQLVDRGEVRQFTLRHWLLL

Compound	mean locomotor activity counts during the initial 10 min measurement ([1]; 10 mg/kg i.p., SD rats) [counts]	cumulative locomotor activity counts over 120 min versus saline ([1]; 10 mg/kg i.p., SD rats, p<0.01)	locomotor responses compared with d-MPH 5 mg/kg of the earlier study (Patrick et al., 1987) ([1]; racemic IPH 10 mg/kg i.p., identical experimental conditions)	activity relative to MPH in inhibition of [3H]-(±)-MPH binding [2]	duration of locomotor activity (Sprague-Dawley rats) [min]	plasma half-life [3] [h]
CC(C)OC(=O)C(c1ccccc1)C1CCCCN1 (racemic) [IPH, dl-threo-α-phenyl-2-piperidineacetic acid isopropyl ester]	~1200	significantly elevated	more potent and sustained locomotor responses	approximately one third	–	–
COC(=O)C(c1ccccc1)C1CCCCN1 (racemic) [MPH, dl-threo-methylphenidate, reference compound]	–	–	–	–	60	2 to 3
